Results taken from patent US10316017B2, “COT modulators and methods of use thereof” (Gilead Sciences, Inc., priority 2015, dated 2019).

How the values were obtained:
[1] = tested on: TNFα production in LPS-stimulated human monocytes; experiment: Cot Monocyte TNFα Cell Based Assay; details: Homo sapiens, Monocyte, TNFα in LPS-stimulated human monocytes; read-out: EC50 TNF
Outline: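 Percent-of-control values derive from TR-FRET ratios of TNFα in spun-down media, referenced to unstimulated and LPS-stimulated wells. Exposure: 1 h compound preincubation, then 50 pg/ml LPS for 4 h, both at 37 °C, with 0.5% final DMSO.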

[2] = biological target: T1, human Cot catalytic domain (30-397 amino acids) (Homo sapiens, UniProt P41279); experiment: High Throughput Cot Biochemical Assay (KinEASE TR-FRET); details: Cot KinEASE TR-FRET (HTRF) biochemical assay, 400 μM ATP; read-out: IC50 HTRF
T1 construct: Purified recombinant human Cot catalytic domain (30-397 amino acids) was purchased from Cama Biosciences; purchased Cama Biosciences (so in the source)
Outline: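 Phosphorylation of 1 μM XL665-STK3 peptide by 5 nM Cot catalytic domain was measured by time-resolved FRET using a europium […] antibody. ATP was 400 μM; buffer was 10 mM MOPS pH 7.0 with Mg2+ and DTT.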

T1 sequence (P41279 30-397): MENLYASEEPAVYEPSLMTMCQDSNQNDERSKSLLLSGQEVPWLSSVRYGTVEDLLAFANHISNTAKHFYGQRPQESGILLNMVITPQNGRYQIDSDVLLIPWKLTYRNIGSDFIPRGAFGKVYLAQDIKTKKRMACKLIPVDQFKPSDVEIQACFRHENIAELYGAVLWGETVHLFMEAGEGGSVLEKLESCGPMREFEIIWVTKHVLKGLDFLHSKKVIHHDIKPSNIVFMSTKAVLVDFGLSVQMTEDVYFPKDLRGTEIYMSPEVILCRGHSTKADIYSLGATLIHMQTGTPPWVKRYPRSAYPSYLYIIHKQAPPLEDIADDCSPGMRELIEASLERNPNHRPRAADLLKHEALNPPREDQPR

Row | EC50 [1] | IC50 [2] | SMILES
1 | 773 nM | 24 nM | N#Cc1cnc2c(Cl)cc(N[C@@H](c3ccc(F)cc3)c3cn(C4CC4)nn3)cc2c1NC(CC(F)(F)F)c1ccccc1 (stereo partly drawn) [Example 347, 8-chloro-6-(((S)-(1-cyclopropyl-1H-1,2,3-triazol-4-yl)(4-fluorophenyl)methyl)amino)-4-((3,3,3-trifluoro-1-phenylpropyl)amino)quinoline-3-carbonitrile]
2 | 1200 nM | 44 nM | N#Cc1cnc2c(Cl)cc(N[C@@H](c3ccc(F)cc3)c3cn(C4CC4)nn3)cc2c1NCC1CCCOC1 (stereo partly drawn) [Example 348, 8-chloro-6-(((S)-(1-cyclopropyl-1H-1,2,3-triazol-4-yl)(4-fluorophenyl)methyl)amino)-4-(((tetrahydro-2H-pyran-3-yl)methyl)amino)quinoline-3-carbonitrile]
3 | 687 nM | 131 nM | CC(F)(F)CNc1c(C#N)cnc2c(Cl)cc(N[C@@H](c3ccc(F)cc3)c3cn(C4CC4)nn3)cc12 [Example 349, (S)-8-chloro-6-(((1-cyclopropyl-1H-1,2,3-triazol-4-yl)(4-fluorophenyl)methyl)amino)-4-((2,2-difluoropropyl)amino)quinoline-3-carbonitrile]
4 | 387 nM | 9 nM | CC(C)(CNc1c(C#N)cnc2c(Cl)cc(N[C@@H](c3ccc(F)cc3)c3cn(C4CC4)nn3)cc12)c1ccccc1 [Example 350, (S)-8-chloro-6-(((1-cyclopropyl-1H-1,2,3-triazol-4-yl)(4-fluorophenyl)methyl)amino)-4-((2-methyl-2-phenylpropyl)amino) quinoline-3-carbonitrile]
5 | 206 nM | 6 nM | [2H][C@](Nc1cc(C#N)c2ncc(C#N)c(Nc3cnc(F)c(F)c3)c2c1)(c1ccc(F)cc1)c1cn(C2CC2)nn1 [Example 351, (S)-6-(((1-cyclopropyl-1H-1,2,3-triazol-4-yl)(4-fluorophenyl)methyl-d)amino)-4-((5,6-difluoropyridin-3-yl)amino)quinoline-3,8-dicarbonitrile]
6 | 1290 nM | 21 nM | [2H][C@](Nc1cc(Cl)c2ncc(C#N)c(Nc3cnc(F)c(F)c3)c2c1)(c1ccc(F)cc1)c1c[nH]nn1 [Example 352, (S)-8-chloro-4-((5,6-difluoropyridin-3-yl)amino)-6-(((4-fluorophenyl) (1H-1,2,3-triazol-4-yl)methyl-d)amino) quinoline-3-carbonitrile]
7 | 3180 nM | 104 nM | N#Cc1cnc2c(Cl)cc(N[C@@H](c3ccc(F)cc3)c3c[nH]nn3)cc2c1Nc1cncc(F)c1 [Example 353, (S)-8-chloro-6-(((4-fluorophenyl)(1H-1,2,3-triazol-4-yl)methyl)amino)-4-((5-fluoropyridin-3-yl)amino)quinoline-3-carbonitrile]
8 | 689 nM | 86 nM | [2H]C(Nc1cc(Cl)c2ncc(C#N)c(N[C@H](CC)c3ccccc3)c2c1)(c1ccc(F)cc1)c1cn(C2CC2)cn1 (stereo partly drawn) [Example 354, 8-chloro-6-(((1-cyclopropyl-1H-imidazol-4-yl)(4-fluorophenyl)methyl-d)amino)-4-(((R)-1-phenylpropyl)amino) quinoline-3-carbonitrile]
9 | 4660 nM | 121 nM | [2H]C(Nc1cc(Cl)c2ncc(C#N)c(Nc3cnc(F)c(F)c3)c2c1)(c1ccc(F)cc1)c1cn(C2CC2)cn1 (stereo not drawn) [Example 355, 8-chloro-6-(((1-cyclopropyl-1H-imidazol-4-yl)(4-fluorophenyl)methyl-d)amino)-4-((5,6-difluoropyridin-3-yl)amino)quinoline-3-carbonitrile]
10 | 6660 nM | 550 nM | [2H][C@@](Nc1cc(Cl)c2ncc(C#N)c(NC3(c4ccccc4)CC3)c2c1)(c1cn(C2CC2)nn1)c1ccccc1Cl [Example 356]
11 | 522 nM | 20 nM | [2H][C@@](Nc1cc(Cl)c2ncc(C#N)c(N[C@H](CC)c3ccccc3)c2c1)(c1cn(C2CC2)nn1)c1ccccc1Cl [Example 357, 8-chloro-6-(((S)-(2-chlorophenyl)(1-cyclopropyl-1H-1,2,3-triazol-4-yl)methyl-d)amino)-4-(((R)-1-phenylpropyl)amino) quinoline-3-carbonitrile]
12 | 673 nM | 12 nM | [2H][C@@](Nc1cc(Cl)c2ncc(C#N)c(Nc3cnc(F)c(F)c3)c2c1)(c1cn(C2CC2)nn1)c1ccccc1Cl [Example 358, (S)-8-chloro-6-(((2-chlorophenyl)(1-cyclopropyl-1H-1,2,3-triazol-4-yl)methyl-d)amino)-4-((5,6-difluoropyridin-3-yl)amino)quinoline-3-carbonitrile]
13 | 2260 nM | 53 nM | [2H][C@](Nc1cc(Cl)c2ncc(C#N)c(Nc3cnc(F)c(F)c3)c2c1)(c1ccc(F)cc1)c1cn(C2CS(=O)(=O)C2)nn1 [Example 359, (S)-8-chloro-4-((5,6-difluoropyridin-3-yl)amino)-6-(((1-(1,1-dioxidothietan-3-yl)-1H-1,2,3-triazol-4-yl)(4-fluorophenyl)methyl-d)amino)quinoline-3-carbonitrile]
14 | 423 nM | 21 nM | [2H][C@](Nc1cc(Cl)c2ncc(C#N)c(Nc3cnc(F)c(F)c3)c2c1)(c1ccc(F)cc1)c1cn([C@@H](C)CF)nn1 [Example 360, 8-chloro-4-((5,6-difluoropyridin-3-yl)amino)-6-(((S)-(4-fluorophenyl)(1-((S)-1-fluoropropan-2-yl)-1H-1,2,3-triazol-4-yl)methyl-d)amino)quinoline-3-carbonitrile]
15 | 83 nM | 5 nM | CC(C)n1cc([C@@H](Nc2cc(Cl)c3ncc(C#N)c(NC(CC#N)c4ccccc4)c3c2)c2ccc(F)cc2)nn1 (stereo partly drawn) [Example 362, 8-chloro-4-((2-cyano-1-phenylethyl)amino)-6-(((S)-(4-fluorophenyl)(1-isopropyl-1H-1,2,3-triazol-4-yl)methyl)amino)quinoline-3-carbonitrile]
16 | > 10000 nM | 874 nM | CC(C)n1cc([C@@H](Nc2cc(Cl)c3ncc(C#N)c(N[C@H](c4ccccc4)C(F)(F)F)c3c2)c2ccc(F)cc2)nn1 [Example 363, 8-chloro-6-(((S)-(4-fluorophenyl)(1-isopropyl-1H-1,2,3-triazol-4-yl)methyl)amino)-4-(((R)-2,2,2-trifluoro-1-phenylethyl)amino)quinoline-3-carbonitrile]
17 | 631 nM | 48 nM | CC(C)n1cc([C@@H](Nc2cc(Cl)c3ncc(C#N)c(N[C@@H](c4ccccc4)C(F)(F)F)c3c2)c2ccc(F)cc2)nn1 [Example 364, 8-chloro-6-(((S)-(4-fluorophenyl)(1-isopropyl-1H-1,2,3-triazol-4-yl)methyl)amino)-4-(((S)-2,2,2-trifluoro-1-phenylethyl)amino)quinoline-3-carbonitrile]
18 | 9330 nM | 868 nM | CC[C@@H](Nc1c(C#N)cnc2c(Cl)cc(N[C@@H](c3ccc(F)cc3)c3cn(C(C)C)nn3)cc12)c1ccc(C)cc1 [Example 365, 8-chloro-6-(((S)-(4-fluorophenyl)(1-isopropyl-1H-1,2,3-triazol-4-yl)methyl)amino)-4-(((R)-1-(p-tolyl)propyl)amino)quinoline-3-carbonitrile]
19 | 1300 nM | 110 nM | CC[C@@H](Nc1c(C#N)cnc2c(Cl)cc(N[C@@H](c3ccc(F)cc3)c3cn(C(C)C)nn3)cc12)c1ccccc1C [Example 366, 8-chloro-6-(((S)-(4-fluorophenyl)(1-isopropyl-1H-1,2,3-triazol-4-yl)methyl)amino)-4-(((R)-1-(o-tolyl)propyl)amino)quinoline-3-carbonitrile]
20 | 3850 nM | 297 nM | N#Cc1cnc2c(Cl)cc(N[C@@H](c3ccc(F)cc3)c3c[nH]nn3)cc2c1Nc1ccc(F)cc1F [Example 367, (S)-8-chloro-4-((2,4-difluorophenyl)amino)-6-(((4-fluorophenyl)(1H-1,2,3-triazol-4-yl)methyl)amino)quinoline-3-carbonitrile]
21 | 1130 nM | 50 nM | N#Cc1cnc2c(Cl)cc(N[C@@H](c3ccc(F)cc3)c3c[nH]nn3)cc2c1Nc1ccc(F)c(F)c1 [Example 368, (S)-8-chloro-4-((3,4-difluorophenyl)amino)-6-(((4-fluorophenyl)(1H-1,2,3-triazol-4-yl)methyl)amino)quinoline-3-carbonitrile]
22 | 93 nM | 4 nM | [2H][C@](Nc1cc(Cl)c2ncc(C#N)c(Nc3cnc(F)c(F)c3)c2c1)(c1cccc(C#N)c1)c1cn(C2CC2)nn1 [Example 369, (S)-8-chloro-6-(((3-cyanophenyl)(1-cyclopropyl-1H-1,2,3-triazol-4-yl)methyl-d)amino)-4-((5,6-difluoropyridin-3-yl)amino)quinoline-3-carbonitrile]
23 | 417 nM | 5 nM | [2H][C@](Nc1cc(Cl)c2ncc(C#N)c(Nc3cnc(F)c(F)c3)c2c1)(c1cccc(C#N)c1)c1c[nH]nn1 [Example 370, (S)-8-chloro-6-(((3-cyanophenyl)(1H-1,2,3-triazol-4-yl)methyl-d)amino)-4-((5,6-difluoropyridin-3-yl)amino)quinoline-3-carbonitrile]
24 | 877 nM | 154 nM | [2H][C@](Nc1cc(Cl)c2ncc(C#N)c(Nc3cnc(F)c(F)c3)c2c1)(c1ccc(F)cc1)c1cn(C2(C(F)(F)F)CC2)nn1 [Example 371, (S)-8-chloro-4-((5,6-difluoropyridin-3-yl)amino)-6-(((4-fluorophenyl)(1-(1-(trifluoromethyl)cyclopropyl)-1H-1,2,3-triazol-4-yl)methyl-d)amino)quinoline-3-carbonitrile]
